Read-outs that look alike come from different tables or passages of the source. Marks after values point to notes of the source that are not given here. Blank lines part the entries; values can stand above or below the molecule they belong to.
What was measured:
PC-3 xenografts = test: in vivo; parameters: species or system BALB/c nu/nu female mice; conditions: mouse
Text: (§1) Animal experiments were planned and performed in accordance with national legislation on protection of laboratory animals, and protocols were approved by the Ethics Committee for Animal Research in Uppsala, Sweden (5.8.18–00473/2021). BALB/c nu/nu female mice were xenografted by subcutaneous injection of PC-3 cells on the hind leg (7 × 10^6 cells/mouse). At the date of the experiment, approximately 6 weeks after implantation, tumour sizes reached 0.11 ± 0.05 g. Groups of four mice were used for each time point. In the first group, mice were iv injected with test radiopeptide (30 kBq in 100 µL PBS supplemented with 1% bovine serum albumin (BSA), corresponding to 40 pmol) and euthanized at 4 h pi. Tumors and relevant organs were collected, weighted and sample radioactivity was measured using the gamma counter. In the case of [^111In]In-AU-SAR-M1 two additional mice groups underwent the same procedure but were euthanized either at 24 h pi, or at 4 h pi following radioligand co-injection with excess (5 nmol) NOTA-PEG2-RM26 to determine the in vivo GRPR-specificity. For statistical analysis Two-Way Anova with Tuckey’s post hock analysis was employed, using GraphPad Prism 7 for Windows® (GraphPad Software, Boston, Massachusetts USA).

in vivo = test: in vivo; parameters: species or system BALB/c nu/nu female mice; conditions: female, BALB/c nu/nu, mouse, iv, total radioactivity
Text: as §1

GRPR = target: T1, GRPR (Homo sapiens, UniProt P30550); test: GRPR binding affinity and kinetics on PC-3 cells (LigandTracer); conditions: 1-3 nM radioligand
T1 construct: host or cells: PC-3 human prostate adenocarcinoma cells
Procedure: For evaluation of the receptor affinity and binding kinetics, PC-3 cells were seeded in 100 mm Nunc™ Petri dishes (Thermo Fisher, Waltham, MA, USA). A LigandTracer Yellow device (Ridgeview Instruments AB, Uppsala, Sweden) was used to measure the radiation from the Petri dish. Background with RPMI-1640 medium was measured for 30 min, after which 1 nM of radioligand was added and measured for 2 h. An additional concentration (3 nM) was measured for another 2 h, thereafter the medium was aspirated, replaced with fresh medium, and left running overnight to measure the dissociation rate. Data was fitted with the TracerDrawer software (Ridgeview Instruments AB, Uppsala, Sweden).

[1] = female, BALB/c nu/nu, iv, 40 pmol, 4 h
[2] = 40 pmol, GI (gastrointestinal tract) uptake
[3] = 40 pmol, Small intestines uptake
[4] = 40 pmol, Tumor-to-kidneys ratio
[5] = 40 pmol, Tumor-to-pancreas ratio
[6] = 1:2 model for M1 and M3, 1:1 model for M2, read-out: KD1

T1 sequence (P30550 whole entry): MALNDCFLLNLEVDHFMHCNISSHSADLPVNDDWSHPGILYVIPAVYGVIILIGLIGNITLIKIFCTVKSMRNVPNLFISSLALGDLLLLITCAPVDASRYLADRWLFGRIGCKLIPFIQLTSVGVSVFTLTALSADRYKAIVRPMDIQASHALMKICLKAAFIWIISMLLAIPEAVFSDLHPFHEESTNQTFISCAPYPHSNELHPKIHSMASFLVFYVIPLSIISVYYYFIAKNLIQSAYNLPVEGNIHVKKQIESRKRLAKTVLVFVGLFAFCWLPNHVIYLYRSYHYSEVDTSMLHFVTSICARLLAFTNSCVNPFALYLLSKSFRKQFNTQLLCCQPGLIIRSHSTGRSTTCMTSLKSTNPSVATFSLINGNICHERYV

Tumor-to-blood ratio (PC-3 xenografts; [1]): 141 ± 61^a
Tumor-to-pancreas ratio (PC-3 xenografts; [1]): 8 ± 7
Tumor-to-blood ratio (PC-3 xenografts; female, BALB/c nu/nu, iv, 40 pmol, 24 h): 557 ± 58^ a
Decrease of tumor uptake from 4 h to 24 h pi (PC-3 xenografts): ~40%
Increase of tumor-to-muscle ratio from 4 h to 24 h pi (PC-3 xenografts): about 1.8 fold
Initial pancreas uptake remaining at 24 h pi (PC-3 xenografts): 5%
Tumor uptake at 24 h pi as % of the 4 h pi value (PC-3 xenografts): 57%
tissue uptake at 4 h (in vivo; 40 pmol, Blood uptake): 0.08 ± 0.03 %ID/g
tissue uptake at 24 h (in vivo; 40 pmol, Blood uptake): 0.01 ± 0.001 %ID/g
tissue uptake at 4 h (in vivo; 40 pmol, Bone uptake): 0.3 ± 0.3 %ID/g
tissue uptake at 24 h (in vivo; 40 pmol, Bone uptake): 0.04 ± 0.02 %ID/g
tissue uptake dose at 4 h (in vivo; 40 pmol, Carcass uptake): 4 ± 2 %ID
tissue uptake dose at 24 h (in vivo; 40 pmol, Carcass uptake): 0.48 ± 0.07 %ID
tissue uptake dose at 4 h (in vivo; [2]): 2 ± 0.9 %ID
tissue uptake dose at 24 h (in vivo; [2]): 0.62 ± 0.49 %ID
tissue uptake at 4 h (in vivo; 40 pmol, Kidneys uptake): 3.1 ± 0.3 %ID/g
tissue uptake at 24 h (in vivo; 40 pmol, Kidneys uptake): 2.38 ± 0.14 %ID/g
tissue uptake at 4 h (in vivo; 40 pmol, Liver uptake): 0.2 ± 0.1 %ID/g
tissue uptake at 24 h (in vivo; 40 pmol, Liver uptake): 0.09 ± 0.01 %ID/g
tissue uptake at 4 h (in vivo; 40 pmol, Lungs uptake): 0.2 ± 0.2 %ID/g
tissue uptake at 24 h (in vivo; 40 pmol, Lungs uptake): 0.04 ± 0.003 %ID/g
tissue uptake at 4 h (in vivo; 40 pmol, Muscle uptake): 0.09 ± 0.06 %ID/g
tissue uptake at 24 h (in vivo; 40 pmol, Muscle uptake): 0.02 ± 0.01 %ID/g
tissue uptake at 4 h (in vivo; 40 pmol, Pancreas uptake): 2 ± 1 %ID/g
tissue uptake at 24 h (in vivo; 40 pmol, Pancreas uptake): 0.12 ± 0.03 %ID/g
tissue uptake at 4 h (in vivo; [3]): 0.8 ± 0.5 %ID/g
tissue uptake at 24 h (in vivo; [3]): 0.07 ± 0.03 %ID/g
tissue uptake at 4 h (in vivo; 40 pmol, Spleen uptake): 0.12 ± 0.05 %ID/g
tissue uptake at 24 h (in vivo; 40 pmol, Spleen uptake): 0.1 ± 0.04 %ID/g
tissue uptake at 4 h (in vivo; 40 pmol, Tumor uptake): 11 ± 1 %ID/g
tissue uptake at 24 h (in vivo; 40 pmol, Tumor uptake): 6.3 ± 0.8 %ID/g
tissue to tissue ratio at 4 h (in vivo; 40 pmol, Tumor-to-blood ratio): 160
tissue to tissue ratio at 24 h (in vivo; 40 pmol, Tumor-to-blood ratio): > 550
tissue to tissue ratio (in vivo; 40 pmol, Tumor-to-bone ratio): > 150
tissue to tissue ratio at 4 h (in vivo; 40 pmol, Tumor-to-bone ratio): 74 ± 68
tissue to tissue ratio at 24 h (in vivo; 40 pmol, Tumor-to-bone ratio): 173 ± 72
tissue to tissue ratio at 4 h (in vivo; [4]): 3.6 ± 0.2
tissue to tissue ratio at 24 h (in vivo; [4]): 2.7 ± 0.2
tissue to tissue ratio at 4 h (in vivo; 40 pmol, Tumor-to-liver ratio): 65 ± 22
tissue to tissue ratio at 24 h (in vivo; 40 pmol, Tumor-to-liver ratio): 67 ± 6
tissue to tissue ratio at 4 h (in vivo; 40 pmol, Tumor-to-lungs ratio): 68 ± 39
tissue to tissue ratio at 24 h (in vivo; 40 pmol, Tumor-to-lungs ratio): 174 ± 29
tissue to tissue ratio at 4 h (in vivo; 40 pmol, Tumor-to-muscle ratio): 167 ± 102
tissue to tissue ratio at 24 h (in vivo; 40 pmol, Tumor-to-muscle ratio): 375 ± 95
tissue to tissue ratio at 4 h (in vivo; [5]): 9 ± 11
tissue to tissue ratio at 24 h (in vivo; [5]): 57 ± 18
tissue to tissue ratio at 4 h (in vivo; 40 pmol, Tumor-to-spleen ratio): 61 ± 19
tissue to tissue ratio at 24 h (in vivo; 40 pmol, Tumor-to-spleen ratio): 70 ± 20
tissue uptake dose at 4 h (in vivo; Carcass uptake): 1.1 ± 0.6 %ID
tissue uptake dose at 4 h (in vivo; GI (gastrointestinal tract) uptake): 1.5 ± 0.3 %ID
Kd (GRPR; [6]): 0.39 nM
Kd (GRPR; 1:2 model, read-out: KD2): 1.1 nM
Compound: CCNC(=O)[C@H](CC(C)C)NC(=O)[C@H](Cc1c[nH]cn1)NC(=O)CN(C)C(=O)[C@@H](NC(=O)[C@H](C)NC(=O)[C@H](Cc1c[nH]c2ccccc12)NC(=O)[C@H](CCC(N)=O)NC(=O)[C@@H](Cc1ccccc1)NC(=O)COCC(=O)Nc1ccc(CNC(=O)CCC(C(=O)O)N2CCN(CC(=O)O)CCN(CC(=O)O)CCN(CC(=O)O)CC2)cc1)C(C)C (stereo partly drawn) [[^111In]In-AU-SAR-M1, [^111In]In-DOTAGA-AMA-DIG-DPhe-Gln-Trp-Ala-Val-Sar-His-Leu-NHEt, metal not drawn]

Tumor-to-small intestines ratio (PC-3 xenografts): 6 ± 2
tissue uptake at 4 h (in vivo; 40 pmol, Blood uptake): 0.08 ± 0.01 %ID/g
tissue uptake at 4 h (in vivo; 40 pmol, Bone uptake): 0.23 ± 0.04 %ID/g
tissue uptake dose at 4 h (in vivo; 40 pmol, Carcass uptake): 4 ± 2 %ID
tissue uptake dose at 4 h (in vivo; [2]): 2.9 ± 0.3 %ID
tissue uptake at 4 h (in vivo; 40 pmol, Kidneys uptake): 3.4 ± 0.4 %ID/g
tissue uptake at 4 h (in vivo; 40 pmol, Liver uptake): 0.3 ± 0.1 %ID/g
tissue uptake at 4 h (in vivo; 40 pmol, Lungs uptake): 0.2 ± 0.1 %ID/g
tissue uptake at 4 h (in vivo; 40 pmol, Muscle uptake): 0.09 ± 0.04 %ID/g
tissue uptake at 4 h (in vivo; 40 pmol, Pancreas uptake): 9 ± 2 %ID/g
tissue uptake at 4 h (in vivo; [3]): 2.4 ± 0.9 %ID/g
tissue uptake at 4 h (in vivo; 40 pmol, Spleen uptake): 0.3 ± 0.1 %ID/g
tissue uptake at 4 h (in vivo; 40 pmol, Tumor uptake): 12.7 ± 0.8 %ID/g
tissue to tissue ratio at 4 h (in vivo; 40 pmol, Tumor-to-blood ratio): 159 ± 32
tissue to tissue ratio at 4 h (in vivo; 40 pmol, Tumor-to-bone ratio): 58 ± 12
tissue to tissue ratio at 4 h (in vivo; [4]): 3.8 ± 0.6
tissue to tissue ratio at 4 h (in vivo; 40 pmol, Tumor-to-liver ratio): 47 ± 14
tissue to tissue ratio at 4 h (in vivo; 40 pmol, Tumor-to-lungs ratio): 63 ± 22
tissue to tissue ratio at 4 h (in vivo; 40 pmol, Tumor-to-muscle ratio): 161 ± 74
tissue to tissue ratio at 4 h (in vivo; [5]): 1.4 ± 0.3
tissue to tissue ratio at 4 h (in vivo; 40 pmol, Tumor-to-spleen ratio): 46 ± 11
Kd (GRPR; [6]): 0.031 nM
Compound: CCNC(=O)[C@H](CC(C)C)NC(=O)[C@H](Cc1c[nH]cn1)NC(=O)CN(C)C(=O)[C@@H](NC(=O)[C@H](C)NC(=O)[C@H](Cc1c[nH]c2ccccc12)NC(=O)[C@H](CCC(N)=O)NC(=O)[C@@H](Cc1ccccc1)NC(=O)COCC(=O)Nc1ccc(CNC(=O)[C@H](CCCNC(=N)N)NC(=O)CCC(C(=O)O)N2CCN(CC(=O)O)CCN(CC(=O)O)CCN(CC(=O)O)CC2)cc1)C(C)C (stereo partly shown) [[^111In]In-AU-SAR-M2, [^111In]In-[DOTAGA-Arg]AU-SAR-M1, metal not drawn]

Compound: CCNC(=O)[C@H](CC(C)C)NC(=O)[C@H](Cc1c[nH]cn1)NC(=O)CN(C)C(=O)[C@@H](NC(=O)[C@H](C)NC(=O)[C@H](Cc1c[nH]c2ccccc12)NC(=O)[C@H](CCC(N)=O)NC(=O)[C@@H](Cc1ccccc1)NC(=O)COCC(=O)Nc1ccc(CNC(=O)[C@@H](CCCNC(=N)N)NC(=O)CCC(C(=O)O)N2CCN(CC(=O)O)CCN(CC(=O)O)CCN(CC(=O)O)CC2)cc1)C(C)C (stereo partly shown) [[^111In]In-AU-SAR-M3, [^111In]In-[DOTAGA-DArg]AU-SAR-M1, metal not drawn]
Tumor-to-small intestines ratio (PC-3 xenografts): 25 ± 7
tissue uptake at 4 h (in vivo; 40 pmol, Blood uptake): 0.05 ± 0.01 %ID/g
tissue uptake at 4 h (in vivo; 40 pmol, Bone uptake): 0.17 ± 0.04 %ID/g
tissue uptake dose at 4 h (in vivo; 40 pmol, Carcass uptake): 2.1 ± 0.2 %ID
tissue uptake dose at 4 h (in vivo; [2]): 0.7 ± 0.2 %ID
tissue uptake at 4 h (in vivo; 40 pmol, Kidneys uptake): 5 ± 0.5 %ID/g
tissue uptake at 4 h (in vivo; 40 pmol, Liver uptake): 0.25 ± 0.02 %ID/g
tissue uptake at 4 h (in vivo; 40 pmol, Lungs uptake): 0.15 ± 0.03 %ID/g
tissue uptake at 4 h (in vivo; 40 pmol, Muscle uptake): 0.07 ± 0.03 %ID/g
tissue uptake at 4 h (in vivo; 40 pmol, Pancreas uptake): 0.5 ± 0.1 %ID/g
tissue uptake at 4 h (in vivo; [3]): 0.2 ± 0.2 %ID/g
tissue uptake at 4 h (in vivo; 40 pmol, Spleen uptake): 0.18 ± 0.03 %ID/g
tissue uptake at 4 h (in vivo; 40 pmol, Tumor uptake): 6.7 ± 0.3 %ID/g
tissue to tissue ratio at 4 h (in vivo; 40 pmol, Tumor-to-blood ratio): 147 ± 43
tissue to tissue ratio at 4 h (in vivo; 40 pmol, Tumor-to-bone ratio): 41 ± 9
tissue to tissue ratio at 4 h (in vivo; [4]): 1.4 ± 0.1
tissue to tissue ratio at 4 h (in vivo; 40 pmol, Tumor-to-liver ratio): 27 ± 3
tissue to tissue ratio at 4 h (in vivo; 40 pmol, Tumor-to-lungs ratio): 47 ± 14
tissue to tissue ratio at 4 h (in vivo; 40 pmol, Tumor-to-muscle ratio): 107 ± 63
tissue to tissue ratio at 4 h (in vivo; [5]): 14 ± 3
tissue to tissue ratio at 4 h (in vivo; 40 pmol, Tumor-to-spleen ratio): 39 ± 8
Kd (GRPR; [6]): 0.3 nM
Kd (GRPR; read-out: KD2, 1:2 model): 1.1 nM
